Non-standard residues stand in square brackets, D forms with d. Residues, ends and D or L forms follow the SMILES beside them. Phe(4-(5-CO2H-2-pyrimidyl)) = N[C@@H](Cc1ccc(-c2ncc(C(=O)O)cn2)cc1)C(=O)O; dPro(4R-(4-pyridylmethyl)) = O=C(O)[C@H]1C[C@@H](Cc2ccncc2)CN1; Trp(βS-Me,4-F) = C[C@@H](c1c[nH]c2cccc(F)c12)[C@H](N)C(=O)O; Bip(4'-COOH) = N[C@@H](Cc1ccc(-c2ccc(C(=O)O)cc2)cc1)C(=O)O; Ala(1-bicyclo(1.1.1)pentyl) = N[C@@H](CC12CC(C1)C2)C(=O)O; Ala(pyrimidin-5-yl) = N[C@@H](Cc1cncnc1)C(=O)O; Phe(4-COOH) = N[C@@H](Cc1ccc(C(=O)O)cc1)C(=O)O; Pro(cis-4-F) = O=C(O)[C@@H]1C[C@H](F)CN1; Ala(4-THP) = N[C@@H](CC1CCOCC1)C(=O)O; cisHyp = O=C(O)[C@@H]1C[C@H](O)CN1; 4Pal = N[C@@H](Cc1ccncc1)C(=O)O; aThr = C[C@H](O)[C@H](N)C(=O)O; αMeD = C[C@](N)(CC(=O)O)C(=O)O; d(αMeS) = C[C@@](N)(CO)C(=O)O; Dab = NCC[C@H](N)C(=O)O; Aib = CC(C)(N)C(=O)O; Sar = CNCC(=O)O
biological target: T1, IL-1β (Homo sapiens, UniProt P01584); experiment: IL-6 assay in MRC5 cells: inhibition of IL-1β induced IL-6 secretion (AlphaLISA); assay type: cell-based; conditions: inhibition of IL-1β induced IL-6 secretion in MRC5 cells; read-out: MRC5 IC50
T1 construct: purchased BioLegend 579404
Outline: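 Compound was pre-incubated 1 h at ambient temperature with recombinant human IL-1β at 2λ EC80 before adding human lung fibroblast MRC5 cells (3000/well) in EMEM with 0.025% BSA. After overnight culture at 37 °C, 5% CO2, secreted IL-6 in conditioned medium was measured by AlphaLISA; IC50 from 4-parameter logistic fits.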

T1 sequence (P01584 117-269): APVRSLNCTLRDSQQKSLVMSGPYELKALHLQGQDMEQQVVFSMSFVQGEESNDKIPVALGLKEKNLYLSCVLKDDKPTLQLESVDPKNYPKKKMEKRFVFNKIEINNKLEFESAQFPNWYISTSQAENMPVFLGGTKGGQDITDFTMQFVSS

Going from C[C@@H](c1c[nH]c2cccc(F)c12)[C@@H]1NC(=O)[C@@H]2C[C@H](F)CN2C(=O)CNC(=O)[C@H](Cc2ccc(C(=O)O)cc2)NC(=O)[C@H](CC23CC(C2)C3)NC(=O)[C@H](Cc2ccc(-c3ncc(C(=O)O)cn3)cc2)NC(=O)[C@H]2C[C@@H](Cc3ccncc3)CN2C(=O)CNC(=O)[C@H](CCN)NC(=O)[C@H](CCC(N)=O)NC(=O)[C@H](Cc2cncnc2)NC(=O)C(C)(C)NC(=O)[C@H](Cc2c[nH]c3ccccc23)NC(=O)[C@H](CO)NC(=O)C(C)(C)NC1=O [Example 198] (cyclo([Phe(4-(5-CO2H-2-pyrimidyl))][Ala(1-bicyclo(1.1.1)pentyl)][Phe(4-COOH)]G[Pro(cis-4-F)][Trp(βS-Me,4-F)][Aib]SW[Aib][Ala(pyrimidin-5-yl)]Q[Dab]G[dPro(4R-(4-pyridylmethyl))])) to C[C@H](O)[C@@H]1NC(=O)[C@](C)(CC(=O)O)NC(=O)[C@H](Cc2c[nH]c3ccccc23)NC(=O)[C@H](CO)NC(=O)C(C)(C)NC(=O)[C@H]([C@@H](C)c2c[nH]c3cccc(F)c23)NC(=O)[C@@H]2C[C@H](F)CN2C(=O)CNC(=O)[C@H](Cc2ccc(C(=O)O)cc2)NC(=O)[C@H](CC23CC(C2)C3)NC(=O)[C@H](Cc2ccc(-c3ccc(C(=O)O)cc3)cc2)NC(=O)[C@H]2C[C@@H](Cc3ccncc3)CN2C(=O)CNC(=O)[C@H](CCN)NC(=O)[C@H](CCC(N)=O)NC1=O [Example 202] (cyclo([Bip(4'-COOH)][Ala(1-bicyclo(1.1.1)pentyl)][Phe(4-COOH)]G[Pro(cis-4-F)][Trp(βS-Me,4-F)][Aib]SW[αMeD][aThr]Q[Dab]G[dPro(4R-(4-pyridylmethyl))])), the IC50 falls from 0.024 nM to 0.013 nM (1.8-fold).

First: C[C@@H](c1c[nH]c2cccc(F)c12)[C@@H]1NC(=O)[C@@H]2C[C@H](O)CN2C(=O)CNC(=O)[C@H](Cc2ccc(C(=O)O)cc2)NC(=O)[C@H](Cc2ccncc2)NC(=O)[C@H](Cc2ccc(-c3ccc(C(=O)O)cc3)cc2)NC(=O)[C@H]2C[C@@H](Cc3ccncc3)CN2C(=O)CNC(=O)[C@H](CO)NC(=O)[C@H](CCC(N)=O)NC(=O)[C@H](CC2CCOCC2)NC(=O)[C@](C)(CC(=O)O)NC(=O)[C@H](Cc2c[nH]c3ccccc23)NC(=O)[C@H](CO)NC(=O)C(C)(C)NC1=O [Example 199] (cyclo([Bip(4'-COOH)][4Pal][Phe(4-COOH)]G[cisHyp][Trp(βS-Me,4-F)][Aib]SW[αMeD][Ala(4-THP)]QSG[dPro(4R-(4-pyridylmethyl))]))
Second: C[C@@H](c1c[nH]c2cccc(F)c12)[C@@H]1NC(=O)[C@@H]2C[C@H](O)CN2C(=O)CNC(=O)[C@H](Cc2ccc(C(=O)O)cc2)NC(=O)[C@H](Cc2ccncc2)NC(=O)[C@H](Cc2ccc(-c3ccc(C(=O)O)cc3)cc2)NC(=O)[C@H]2C[C@@H](Cc3ccncc3)CN2C(=O)CNC(=O)[C@H](CCN)NC(=O)[C@H](CCC(N)=O)NC(=O)[C@H](CC2CCOCC2)NC(=O)[C@](C)(CC(=O)O)NC(=O)[C@H](Cc2c[nH]c3ccccc23)NC(=O)[C@H](CO)NC(=O)C(C)(C)NC1=O [Example 201] (cyclo([Bip(4'-COOH)][4Pal][Phe(4-COOH)]G[cisHyp][Trp(βS-Me,4-F)][Aib]SW[αMeD][Ala(4-THP)]Q[Dab]G[dPro(4R-(4-pyridylmethyl))]))
The IC50 of the first is 1.7-fold higher: 0.032 nM for the first, 0.019 nM for the second. The second is the more potent here.

C[C@@H](c1c[nH]c2cccc(F)c12)[C@@H]1NC(=O)[C@@H]2C[C@H](F)CN2C(=O)CNC(=O)[C@H](Cc2ccc(C(=O)O)cc2)NC(=O)[C@H](Cc2ccncc2)NC(=O)[C@H](Cc2ccc(-c3ccc(C(=O)O)cc3)cc2)NC(=O)[C@H]2C[C@@H](Cc3ccncc3)CN2C(=O)CNC(=O)[C@H](CCN)NC(=O)[C@H](CCC(N)=O)NC(=O)[C@H](CC2CCOCC2)NC(=O)[C@](C)(CC(=O)O)NC(=O)[C@H](Cc2c[nH]c3ccccc23)NC(=O)[C@H](CO)NC(=O)C(C)(C)NC1=O [Example 200] (cyclo([Bip(4'-COOH)][4Pal][Phe(4-COOH)]G[Pro(cis-4-F)][Trp(βS-Me,4-F)][Aib]SW[αMeD][Ala(4-THP)]Q[Dab]G[dPro(4R-(4-pyridylmethyl))])) and C[C@@H](c1c[nH]c2cccc(F)c12)[C@@H]1NC(=O)[C@@H]2C[C@H](F)CN2C(=O)CNC(=O)[C@H](Cc2ccc(C(=O)O)cc2)NC(=O)[C@H](Cc2ccncc2)NC(=O)[C@H](Cc2ccc(-c3ccc(C(=O)O)cc3)cc2)NC(=O)[C@H]2C[C@@H](Cc3ccncc3)CN2C(=O)CN(C)C(=O)[C@H](CCN)NC(=O)[C@H](CCC(N)=O)NC(=O)[C@H](CC2CCOCC2)NC(=O)[C@](C)(CC(=O)O)NC(=O)[C@H](Cc2c[nH]c3ccccc23)NC(=O)[C@H](CO)NC(=O)C(C)(C)NC1=O [Example 208] (cyclo([Bip(4'-COOH)][4Pal][Phe(4-COOH)]G[Pro(cis-4-F)][Trp(βS-Me,4-F)][Aib]SW[αMeD][Ala(4-THP)]Q[Dab][Sar][dPro(4R-(4-pyridylmethyl))])) are within 1.5-fold of each other in IC50: 0.014 nM for the first, 0.015 nM for the second.

CC(C)[C@@H]1NC(=O)[C@](C)(CC(=O)O)NC(=O)[C@H](Cc2c[nH]c3ccccc23)NC(=O)[C@H](CO)NC(=O)C(C)(C)NC(=O)[C@H]([C@@H](C)c2c[nH]c3cccc(F)c23)NC(=O)[C@@H]2C[C@H](F)CN2C(=O)CNC(=O)[C@H](Cc2ccc(C(=O)O)cc2)NC(=O)[C@H](CC23CC(C2)C3)NC(=O)[C@H](Cc2ccc(-c3ccc(C(=O)O)cc3)cc2)NC(=O)[C@H]2C[C@@H](Cc3ccncc3)CN2C(=O)CNC(=O)[C@H](CCN)NC(=O)[C@H](CCC(N)=O)NC1=O [Example 203] (cyclo([Bip(4'-COOH)][Ala(1-bicyclo(1.1.1)pentyl)][Phe(4-COOH)]G[Pro(cis-4-F)][Trp(βS-Me,4-F)][Aib]SW[αMeD]VQ[Dab]G[dPro(4R-(4-pyridylmethyl))])) and C[C@@H](c1c[nH]c2cccc(F)c12)[C@@H]1NC(=O)[C@@H]2C[C@H](F)CN2C(=O)CNC(=O)[C@H](Cc2ccc(C(=O)O)cc2)NC(=O)[C@H](CC23CC(C2)C3)NC(=O)[C@H](Cc2ccc(-c3ccc(C(=O)O)cc3)cc2)NC(=O)[C@H]2C[C@@H](Cc3ccncc3)CN2C(=O)CNC(=O)[C@H](CCN)NC(=O)[C@H](CCC(N)=O)NC(=O)[C@H](CC2CCOCC2)NC(=O)[C@@](C)(CO)NC(=O)[C@H](Cc2c[nH]c3ccccc23)NC(=O)[C@H](CO)NC(=O)C(C)(C)NC1=O [Example 204] (cyclo([Bip(4'-COOH)][Ala(1-bicyclo(1.1.1)pentyl)][Phe(4-COOH)]G[Pro(cis-4-F)][Trp(βS-Me,4-F)][Aib]SW[d(αMeS)][Ala(4-THP)]Q[Dab]G[dPro(4R-(4-pyridylmethyl))])) are within 1.5-fold of each other in IC50: 0.016 nM for the first, 0.017 nM for the second.

C[C@@H](c1c[nH]c2cccc(F)c12)[C@@H]1NC(=O)[C@@H]2C[C@H](F)CN2C(=O)CNC(=O)[C@H](Cc2ccc(C(=O)O)cc2)NC(=O)[C@H](Cc2ccncc2)NC(=O)[C@H](Cc2ccc(-c3ccc(C(=O)O)cc3)cc2)NC(=O)[C@H]2C[C@@H](Cc3ccncc3)CN2C(=O)CN(C)C(=O)[C@H](CCN)NC(=O)[C@H](CCC(N)=O)NC(=O)[C@H](Cc2cncnc2)NC(=O)C(C)(C)NC(=O)[C@H](Cc2c[nH]c3ccccc23)NC(=O)[C@H](CO)NC(=O)C(C)(C)NC1=O [Example 205] (cyclo([Bip(4'-COOH)][4Pal][Phe(4-COOH)]G[Pro(cis-4-F)][Trp(βS-Me,4-F)][Aib]SW[Aib][Ala(pyrimidin-5-yl)]Q[Dab][Sar][dPro(4R-(4-pyridylmethyl))])) and C[C@@H](c1c[nH]c2cccc(F)c12)[C@@H]1NC(=O)[C@@H]2C[C@H](F)CN2C(=O)CNC(=O)[C@H](Cc2ccc(C(=O)O)cc2)NC(=O)[C@H](Cc2ccncc2)NC(=O)[C@H](Cc2ccc(-c3ccc(C(=O)O)cc3)cc2)NC(=O)[C@H]2C[C@@H](Cc3ccncc3)CN2C(=O)CN(C)C(=O)[C@H](CCN)NC(=O)[C@H](CCC(N)=O)NC(=O)[C@H](Cc2cncnc2)NC(=O)[C@@](C)(CO)NC(=O)[C@H](Cc2c[nH]c3ccccc23)NC(=O)[C@H](CO)NC(=O)C(C)(C)NC1=O [Example 206] (cyclo([Bip(4'-COOH)][4Pal][Phe(4-COOH)]G[Pro(cis-4-F)][Trp(βS-Me,4-F)][Aib]SW[d(αMeS)][Ala(pyrimidin-5-yl)]Q[Dab][Sar][dPro(4R-(4-pyridylmethyl))])) are within 1.5-fold of each other in IC50: 0.028 nM for the first, 0.022 nM for the second.

C[C@@H](c1c[nH]c2cccc(F)c12)[C@@H]1NC(=O)[C@@H]2C[C@H](O)CN2C(=O)CNC(=O)[C@H](Cc2ccc(C(=O)O)cc2)NC(=O)[C@H](Cc2ccncc2)NC(=O)[C@H](Cc2ccc(-c3ccc(C(=O)O)cc3)cc2)NC(=O)[C@H]2C[C@@H](Cc3ccncc3)CN2C(=O)CN(C)C(=O)[C@H](CCN)NC(=O)[C@H](CCC(N)=O)NC(=O)[C@H](CC2CCOCC2)NC(=O)[C@@](C)(CO)NC(=O)[C@H](Cc2c[nH]c3ccccc23)NC(=O)[C@H](CO)NC(=O)C(C)(C)NC1=O [Example 207] (cyclo([Bip(4'-COOH)][4Pal][Phe(4-COOH)]G[cisHyp][Trp(βS-Me,4-F)][Aib]SW[d(αMeS)][Ala(4-THP)]Q[Dab][Sar][dPro(4R-(4-pyridylmethyl))])) and C[C@@H](c1c[nH]c2cccc(F)c12)[C@@H]1NC(=O)[C@@H]2C[C@H](O)CN2C(=O)CNC(=O)[C@H](Cc2ccc(C(=O)O)cc2)NC(=O)[C@H](Cc2ccncc2)NC(=O)[C@H](Cc2ccc(-c3ccc(C(=O)O)cc3)cc2)NC(=O)[C@H]2C[C@@H](Cc3ccncc3)CN2C(=O)CN(C)C(=O)[C@H](CCN)NC(=O)[C@H](CCC(N)=O)NC(=O)[C@H](Cc2cncnc2)NC(=O)[C@](C)(CC(=O)O)NC(=O)[C@H](Cc2c[nH]c3ccccc23)NC(=O)[C@H](CO)NC(=O)C(C)(C)NC1=O [Example 209] (cyclo([Bip(4'-COOH)][4Pal][Phe(4-COOH)]G[cisHyp][Trp(βS-Me,4-F)][Aib]SW[αMeD][Ala(pyrimidin-5-yl)]Q[Dab][Sar][dPro(4R-(4-pyridylmethyl))])) are within 1.5-fold of each other in IC50: 0.044 nM for the first, 0.034 nM for the second.

Source: patent publication US20260242419A1, “A CYCLIC PEPTIDE FOR TRAPPING INTERLEUKIN-1 BETA” (Merck Sharp & Dohme LLC, priority 2023, published 2026)
